Values quoted from earlier work as cited in patent US20200113899A1, “STATIN COMPOSITIONS AND METHODS FOR USE IN TREATING SYNUCLEINOPATHIES” (CHASE THERAPEUTICS CORPORATION, priority 2017, published 2020).

Columns and labels:
alpha-synuclein [1] = details: transgenic mouse models
[2] = 535 PD patients
alpha-synuclein [3] = details: Parkinson patients, therapeutic doses, compared with pre-treatment values; magnitude of the effect small
[4] = pramipexole 5 mg/day

Structure (SMILES): CC[C@H](C)C(=O)O[C@H]1C[C@@H](C)C=C2C=C[C@H](C)[C@H](CC[C@@H]3C[C@@H](O)CC(=O)O3)[C@H]21 [lovastatin, (1S,3R,7S,8S,8aR)-8-{2-[(2R,4R)-4-Hydroxy-6-oxooxan-2-yl]ethyl}-3,7-dimethyl-1,2,3,7,8,8a-hexahydronaphthalen-1-yl (2S)-2-methylbutanoate]
- alpha-synuclein accumulation and oxidation (alpha-synuclein [1]): ameliorated

Structure (SMILES): CCCN[C@H]1CCc2nc(N)sc2C1 [pramipexole, (S)-6-propylamino-4,5,6,7-tetrahydro-1,3-benzothiazole-2-amine]
- neuroprotective (disease modifying) activity [2]: failed to evidence neuroprotective (i.e., disease modifying) activity
- relative expression of alpha-synuclein (alpha-synuclein [3]): significantly lowered
- patients with nausea [4]: 76%
- patients with vomiting [4]: 39%
- patients not able to complete the study ([4]; presumably because of intolerable GI adverse events): 36%

Structure (SMILES): CC(C)c1nc(N(C)S(C)(=O)=O)nc(-c2ccc(F)cc2)c1/C=C/[C@@H](O)C[C@@H](O)CC(=O)O [rosuvastatin, (3R,5S,6E)-7-[4-(4-Fluorophenyl)-2-(N-methylmethanesulfonamido)-6-(propan-2-yl)pyrimidin-5-yl]-3,5-dihydroxyhept-6-enoic acid]
- effect against rotenone-induced neurotoxicity (SH-SY5Y cells): neuroprotective effect
- α-synuclein expression (SH-SY5Y cells): modulation
